We go through 19 compounds from patent US11286268B1, “EIF4E-inhibiting compounds and methods” (EFFECTOR THERAPEUTICS, INC., priority 2019, dated 2022).

Like-named read-outs stand apart in the source and are kept apart here.

For this assay, the target named is recombinant eIF4E (Homo sapiens (Human), UniProt P06730). Nature of the assay: Fluorescence polarization competition assay for eIF4E binding potency. Summed up: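 IC50 derived from fluorescence polarization over an 8-point, 3-fold compound series after 30 min room-temperature equilibration in the dark. Mix: eIF4E 75 nM pre-bound 5 min to 20 nM EDA-m^7GDP-ATTO-550; buffer 20 mM Tris pH 7.5, 100 mM NaCl, 1 mM DTT, 0.02% Tween-20; DMSO 1%.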
On the technique in general: Polarisation of emitted light reports the rotation of a fluorescent probe.

Where [1] appears, read: inhibition of eIF4E/EDA-m7GDP-ATTO-550 binding, calculated IC50 values, Table 4B, read-out: IC50.
The mark [2] stands for this setting: fluorescence polarization competition, 75 nM recombinant eIF4E, 20 nM EDA-m7GDP-ATTO-550, IC50 class, read-out: elF4E FP.
Setting [3] is: inhibition of eIF4E/EDA-m7GDP-ATTO-550 binding by 50%, Table 4B calculated values, read-out: IC50.

Sequence of recombinant eIF4E (P06730 whole entry): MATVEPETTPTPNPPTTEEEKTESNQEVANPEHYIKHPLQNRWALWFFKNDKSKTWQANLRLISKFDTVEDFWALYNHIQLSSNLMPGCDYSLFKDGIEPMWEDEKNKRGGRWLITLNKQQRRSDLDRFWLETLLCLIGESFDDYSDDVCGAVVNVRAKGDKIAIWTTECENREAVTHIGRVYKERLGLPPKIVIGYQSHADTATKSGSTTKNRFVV

In the case of `Cc1nc2cnc(N(C)C3CCN(CC(C)(F)F)CC3)c(C#N)c2c(=O)n1CC#Cc1ccc(Cl)cc1-c1ccnc2c(C(=O)NS(=O)(=O)c3ccc(C(F)(F)F)cn3)csc12` [compound 1679], the IC50 under setting [1] was 29.3 nM.
Consider `Cc1cc(-c2cc(Cl)ccc2OCCn2c(C)nc3cc(Cl)c(-c4ccc(N(C)C)nc4)c(C#N)c3c2=O)c2scc(C(=O)O)c2n1` [compound 397], for which the IC50 is under 50 nM under setting [2] and 10.5 nM under setting [3].
In the same order, the values of `Cc1cc(-c2cc(Cl)ccc2OCCn2c(C)nc3cc(Cl)c(N)c(C#N)c3c2=O)c2scc(C(=O)O)c2n1` [compound 692] are under 50 nM and 5.97 nM.
`Cc1nc2cc(C(F)(F)F)c(CCN3CC(F)(F)C3)c(C#N)c2c(=O)n1CCOc1ccc(Cl)cc1-c1ccnc2c(C(=O)O)csc12` [compound 1287]: the IC50 under setting [1] was 42.4 nM.
For the compound `Cc1nc2cc(C(F)(F)F)cc(C#N)c2c(=O)n1CCOc1ccc(C#N)nc1-c1ccnc2c(C(=O)O)csc12` [compound 292], the IC50 was 50 to 1000 nM under setting [2] and 203 nM under setting [3].
On the same counts, the results for `N#Cc1cc(C(F)(F)F)cc2nc(C(F)F)n(CCOc3ccc(Cl)cc3-c3ccnc4c(C(=O)O)csc34)c(=O)c12` [compound 65] are under 50 nM and 24.1 nM.
On the same counts, the results for `Cc1cc(-c2cc(Cl)ccc2OCCn2c(C)nc3c(-c4ccccc4)nc(C4CC4)c(C#N)c3c2=O)c2scc(C(=O)O)c2n1` [compound 910] are under 50 nM and 17.5 nM.
Turning to `Cc1nc2cc(C(F)(F)F)cc(C(F)F)c2c(=O)n1CCOc1ccc(Cl)cc1-c1ccnc2c(C(=O)O)csc12` [compound 220], the IC50 runs as follows: under setting [2], 50 to 1000 nM; under setting [3], 213 nM.
As to `CC(=O)c1cnn2c(-c3cc(Cl)ccc3OCCn3c(C)nc4cc(C(F)(F)F)cc(C#N)c4c3=O)cc(C)nc12` [compound 414], the IC50 is, setting by setting: under setting [2], under 50 nM; under setting [3], 20.5 nM.
In the same order, the values of `N#Cc1ccc2ncn(CCOc3ccc(Cl)cc3-c3cccc(C(=O)O)c3)c(=O)c2c1` [compound 74] are 50 to 1000 nM and 423 nM.
For the compound `Cc1nc2cnc(-c3cccc(CN(C)CC(F)F)c3)c(C#N)c2c(=O)n1CC#Cc1ccc(Cl)cc1-c1ccnc2c(C(=O)O)csc12` [compound 1559], the IC50 under setting [1] is 13.4 nM.
For `Cc1nc2cnc(N(C)C3CCN(CC(F)(F)F)CC3)c(C#N)c2c(=O)n1CC#Cc1ccc(Cl)cc1-c1ccnc2c(C(=O)NS(=O)(=O)C3CC3)csc12` [compound 1547], under setting [1], the IC50 was 15.2 nM.
Turning to `Cc1cc(-c2cc(Cl)ccc2OCCn2c(C)nc3cc(F)c(C4=CCCC4)c(C#N)c3c2=O)c2scc(C(=O)O)c2n1` [compound 805], the IC50 is under 50 nM under setting [2] and 13.6 nM under setting [3].
For `Cc1cc(-c2cc(Cl)ccc2OCCn2c(C)nc3cc(C(F)(F)F)c(N4CCN(C)CC4)c(C#N)c3c2=O)cc(C(=O)O)n1` [compound 1222], the IC50 by setting is: under setting [2], under 50 nM; under setting [1], 3.02 nM.
On to `Cc1cc(-c2cc(Cl)ccc2OCCn2c(C)nc3c(C(F)(F)F)ncc(C#N)c3c2=O)c2scc(C(=O)O)c2n1` [compound 340], for which the IC50 under setting [2] was under 50 nM and the IC50 under setting [3] was 5.01 nM.
Turning to `Cc1nc2cnc(N(C)C3CCN(C4CC(F)(F)C4)CC3)c(C#N)c2c(=O)n1CC#Cc1ccc(Cl)cc1-c1ccnc2c(C(=O)NS(=O)(=O)C(C)(C)C)csc12` [compound 1812], the IC50 under setting [1] is 18.4 nM.
With `Cc1cc(-c2c(Cl)cc3nc(C)n(CCOc4ccc(Cl)cc4-c4cc(C)nc5c(C(=O)O)csc45)c(=O)c3c2C#N)ccn1` [compound 393], the IC50 was under 50 nM under setting [2] and 11.8 nM under setting [3].
On the same counts, the results for `Cc1nc2c(C(F)(F)F)ncc(C#N)c2c(=O)n1CCOc1ccc(Cl)cc1-c1cccc(C(=O)O)c1` [compound 38] are 50 to 1000 nM and 55.5 nM.
On the same counts, the results for `Cc1cc(-c2cc(Cl)ccc2OCCn2c(C)nc3cc(Cl)c(N4CC(C(F)(F)F)C4)c(C#N)c3c2=O)c2scc(C(=O)O)c2n1` [compound 689] are under 50 nM and 11.5 nM.
